Results reported in ChEMBL document CHEMBL1149146, “Synthesis and biological evaluation of new 1,2-dihydro-4-hydroxy-2-oxo-3-quinolinecarboxamides for treatment of autoimmune disorders: structure-activity relationship” (2004).
The source made the active and inactive calls.

How the values were obtained:
Mus musculus [1] = assay: Inhibition of acute experimental autoimmune encephalomyelitis (aEAE) induced in SJL/N mice at a dose of 1 mg/kg/day, (po) was determined; Inactive; assay type: functional
Mus musculus [2] = assay: Inhibition of acute experimental autoimmune encephalomyelitis (aEAE) induced in SJL/N mice at a dose of 0.2 mg/kg/day, (po) was determined; Inactive; assay type: functional
Mus musculus [3] = assay: Inhibition of acute experimental autoimmune encephalomyelitis (aEAE) induced in SJL/N mice at a dose of 1 mg/kg/day, (po); assay type: functional
Mus musculus [4] = assay: Inhibition of acute experimental autoimmune encephalomyelitis in SJL/N mice by 5 mg/kg/day p.o.; assay type: functional; settings: route oral
Mus musculus [5] = assay: Inhibition of acute experimental autoimmune encephalomyelitis in SJL/N mice by 1 mg/kg/day p.o./s.c.; assay type: functional; settings: route oral
Mus musculus [6] = assay: Inhibition of acute experimental autoimmune encephalomyelitis in SJL/N mice by 0.2 mg/kg/day p.o./s.c.; assay type: functional; settings: po
Mus musculus [7] = assay: Inhibition of acute experimental autoimmune encephalomyelitis in SJL/N mice by 5 mg/kg/day p.o./s.c.; assay type: functional; settings: route oral
Mus musculus [8] = assay: Inhibition of acute experimental autoimmune encephalomyelitis in SJL/N mice by 0.2 mg/kg/day p.o.; assay type: functional; settings: route oral
Mus musculus [9] = assay: Inhibition of acute experimental autoimmune encephalomyelitis (aEAE) induced in SJL/N mice at a dose of 5 mg/kg/day, (sc) was determined; Inactive; assay type: functional
Mus musculus [10] = assay: Inhibition of acute experimental autoimmune encephalomyelitis (aEAE) induced in SJL/N mice at a dose of 0.2 mg/kg/day, (po) was determined; Inactive <35% inhibition; assay type: functional, organism-based
Mus musculus [11] = assay: Inhibition of acute experimental autoimmune encephalomyelitis (aEAE) induced in SJL/N mice at a dose of 5 mg/kg/day, (po) was determined; Inactive; assay type: functional
Mus musculus [12] = assay: Inhibition of acute experimental autoimmune encephalomyelitis (aEAE) induced in SJL/N mice at a dose of 5 mg/kg/day, (sc) was determined; assay type: functional

CCN(C(=O)c1c(O)c2cc(C)ccc2n(C)c1=O)c1ccccc1
inhibition in vivo at 1 mg/kg/day (Mus musculus [1]): < 35% | inhibition in vivo at 0.2 mg/kg/day (Mus musculus [2]): < 35%

CN(C(=O)c1c(O)c2c(C(F)(F)F)cccc2n(C)c1=O)c1ccccc1
inhibition in vivo at 1 mg/kg/day (Mus musculus [3]): 99% | inhibition in vivo at 5 mg/kg/day (Mus musculus [4]): 100%

CN(C(=O)c1c(O)c2c(Cl)cccc2n(C)c1=O)c1ccccc1
inhibition in vivo at 1 mg/kg/day (Mus musculus [5]): 99% | inhibition in vivo at 0.2 mg/kg/day (Mus musculus [6]): 91% | inhibition in vivo at 5 mg/kg/day (Mus musculus [7]): 100%

C=CCN(C(=O)c1c(O)c2c(Cl)cccc2n(C)c1=O)c1ccccc1
inhibition in vivo at 1 mg/kg/day (Mus musculus [3]): 59% | inhibition in vivo at 5 mg/kg/day (Mus musculus [4]): 81%

CCc1cccc2c1c(O)c(C(=O)N(CC)c1ccccc1)c(=O)n2C [PAQUINIMOD]
inhibition in vivo at 1 mg/kg/day (Mus musculus [3]): 100% | inhibition in vivo at 0.2 mg/kg/day (Mus musculus [8]): 81%

CN(C(=O)c1c(O)c2cccc(C(F)(F)F)c2n(C)c1=O)c1ccc(Cl)cc1Cl
inhibition in vivo at 5 mg/kg/day (Mus musculus [9]): < 35%

CCN(C(=O)c1c(O)c2c(C)cccc2n(C)c1=O)c1ccccc1
inhibition in vivo at 1 mg/kg/day (Mus musculus [3]): 65% | inhibition (Mus musculus [10]): inactive | inhibition in vivo at 5 mg/kg/day (Mus musculus [4]): 85%

COc1cccc2c1c(O)c(C(=O)N(C)c1cccc(C(C)(C)C)c1)c(=O)n2C
inhibition in vivo at 1 mg/kg/day (Mus musculus [3]): 60% | inhibition in vivo at 0.2 mg/kg/day (Mus musculus [8]): 38% | inhibition in vivo at 5 mg/kg/day (Mus musculus [4]): 84%

CN(C(=O)c1c(O)c2ccc(Oc3ccccc3)cc2n(C)c1=O)c1ccc(F)cc1
inhibition in vivo at 5 mg/kg/day (Mus musculus [9]): < 35%

Cc1ccc2c(c1)c(O)c(C(=O)N(C)c1ccccc1)c(=O)n2C
inhibition in vivo at 1 mg/kg/day (Mus musculus [5]): 79% | inhibition in vivo at 0.2 mg/kg/day (Mus musculus [6]): 62% | inhibition in vivo at 5 mg/kg/day (Mus musculus [7]): 100%

CN(C)c1ccc2c(c1)c(O)c(C(=O)N(C)c1ccccc1)c(=O)n2C
inhibition in vivo at 5 mg/kg/day (Mus musculus [11]): < 35%

COc1ccc2c(O)c(C(=O)N(C)c3ccccc3)c(=O)n(C)c2c1
inhibition in vivo at 5 mg/kg/day (Mus musculus [9]): < 35%

CN(C(=O)c1c(O)c2c(Oc3ccc(F)cc3)cccc2n(C)c1=O)c1ccccc1
inhibition in vivo at 1 mg/kg/day (Mus musculus [1]): < 35% | inhibition in vivo at 5 mg/kg/day (Mus musculus [11]): < 35%

CCc1ccc2c(c1)c(O)c(C(=O)N(CC)c1ccccc1)c(=O)n2C
inhibition in vivo at 1 mg/kg/day (Mus musculus [1]): < 35% | inhibition in vivo at 5 mg/kg/day (Mus musculus [11]): < 35%

COc1ccc(N(C)C(=O)c2c(O)c3c(OC)cccc3n(C)c2=O)cc1
inhibition in vivo at 1 mg/kg/day (Mus musculus [3]): 84% | inhibition in vivo at 0.2 mg/kg/day (Mus musculus [8]): 78%

CCN(C(=O)c1c(O)c2c(Cl)cccc2n(C)c1=O)c1ccccc1 [LAQUINIMOD]
inhibition in vivo at 1 mg/kg/day (Mus musculus [5]): 92% | inhibition in vivo at 0.2 mg/kg/day (Mus musculus [6]): 66% | inhibition in vivo at 5 mg/kg/day (Mus musculus [7]): 96%

COc1cccc2c1c(O)c(C(=O)N(C)c1cccc(Oc3ccccc3)c1)c(=O)n2C
inhibition in vivo at 1 mg/kg/day (Mus musculus [5]): 63% | inhibition in vivo at 0.2 mg/kg/day (Mus musculus [6]): 47% | inhibition in vivo at 5 mg/kg/day (Mus musculus [7]): 90%

CN(C(=O)c1c(O)c2cc(OC(F)(F)F)ccc2n(C)c1=O)c1ccccc1
inhibition in vivo at 1 mg/kg/day (Mus musculus [5]): 72% | inhibition in vivo at 0.2 mg/kg/day (Mus musculus [6]): 63% | inhibition in vivo at 5 mg/kg/day (Mus musculus [7]): 96%

CCN(C(=O)c1c(O)c2c(F)cccc2n(C)c1=O)c1ccccc1
inhibition in vivo at 1 mg/kg/day (Mus musculus [3]): 60%

COc1cccc2c1c(O)c(C(=O)N(C)c1ccc(F)cc1F)c(=O)n2C
inhibition in vivo at 1 mg/kg/day (Mus musculus [3]): 88% | inhibition in vivo at 0.2 mg/kg/day (Mus musculus [8]): 76%

CN(C(=O)c1c(O)c2ccc(Cl)cc2n(C)c1=O)c1ccccc1
inhibition in vivo at 5 mg/kg/day (Mus musculus [9]): < 35%

CCOc1ccc2c(c1)c(O)c(C(=O)N(C)c1ccc(F)cc1)c(=O)n2C
inhibition in vivo at 5 mg/kg/day (Mus musculus [12]): 53%

CCN(C(=O)c1c(O)c2c3c(ccc2n(C)c1=O)OCO3)c1ccccc1
inhibition in vivo at 1 mg/kg/day (Mus musculus [3]): 75% | inhibition in vivo at 0.2 mg/kg/day (Mus musculus [8]): 58% | inhibition in vivo at 5 mg/kg/day (Mus musculus [4]): 99%

CCN(C(=O)c1c(O)c2cc(C(F)(F)F)ccc2n(C)c1=O)c1ccccc1
inhibition in vivo at 1 mg/kg/day (Mus musculus [3]): 57% | inhibition in vivo at 0.2 mg/kg/day (Mus musculus [2]): < 35%

CSc1cccc2c1c(O)c(C(=O)N(C)c1ccccc1)c(=O)n2C
inhibition in vivo at 1 mg/kg/day (Mus musculus [3]): 100% | inhibition in vivo at 0.2 mg/kg/day (Mus musculus [8]): 94% | inhibition in vivo at 5 mg/kg/day (Mus musculus [4]): 100%

CN(C(=O)c1c(O)c2c([N+](=O)[O-])cccc2n(C)c1=O)c1ccccc1
inhibition in vivo at 1 mg/kg/day (Mus musculus [3]): 96% | inhibition in vivo at 0.2 mg/kg/day (Mus musculus [8]): 46% | inhibition in vivo at 5 mg/kg/day (Mus musculus [4]): 100%

CCCN(C(=O)c1c(O)c2c(Cl)cccc2n(C)c1=O)c1ccccc1
inhibition in vivo at 1 mg/kg/day (Mus musculus [3]): 94% | inhibition in vivo at 0.2 mg/kg/day (Mus musculus [8]): 49% | inhibition in vivo at 5 mg/kg/day (Mus musculus [4]): 100%

CCN(C(=O)c1c(O)c2cc(OC)ccc2n(C)c1=O)c1ccccc1
inhibition in vivo at 1 mg/kg/day (Mus musculus [5]): 37% | inhibition in vivo at 0.2 mg/kg/day (Mus musculus [6]): 39% | inhibition in vivo at 5 mg/kg/day (Mus musculus [7]): 84%
